Experimental data: patent US8623879B2, “1-heterocyclyl-1,5-dihydro-pyrazolo[3,4-D] pyrimidin-4-one derivates and their use as PDE9A modulators” (Boehringer Ingelheim International GmbH, priority 2008, dated 2014)
Read-outs that look alike come from different tables or passages of the source. One block for each molecule: values may come before it.

Target: T1, human PDE9A2 (Homo sapiens, UniProt O76083)
T1 construct: made in house; host or cells: Sf9 insect cells (infected); crude lysate used as enzyme source
Assay: PDE9A2 enzymatic activity assay (scintillation proximity assay, SPA)
Format: biochemical
Conditions: for IC50: reported only as range 1-100 or 101-1200 nanomolar, specific value lies within range

[1] = read-out: % inhibition of PDE9A2 (at 10 micromolar concentration), 10 micromolar concentration, values above 100% adjusted to 100%
[2] = read-out: IC50 within range [nanomolar (nM)]

T1 sequence (O76083 1-533 isoform O76083-2): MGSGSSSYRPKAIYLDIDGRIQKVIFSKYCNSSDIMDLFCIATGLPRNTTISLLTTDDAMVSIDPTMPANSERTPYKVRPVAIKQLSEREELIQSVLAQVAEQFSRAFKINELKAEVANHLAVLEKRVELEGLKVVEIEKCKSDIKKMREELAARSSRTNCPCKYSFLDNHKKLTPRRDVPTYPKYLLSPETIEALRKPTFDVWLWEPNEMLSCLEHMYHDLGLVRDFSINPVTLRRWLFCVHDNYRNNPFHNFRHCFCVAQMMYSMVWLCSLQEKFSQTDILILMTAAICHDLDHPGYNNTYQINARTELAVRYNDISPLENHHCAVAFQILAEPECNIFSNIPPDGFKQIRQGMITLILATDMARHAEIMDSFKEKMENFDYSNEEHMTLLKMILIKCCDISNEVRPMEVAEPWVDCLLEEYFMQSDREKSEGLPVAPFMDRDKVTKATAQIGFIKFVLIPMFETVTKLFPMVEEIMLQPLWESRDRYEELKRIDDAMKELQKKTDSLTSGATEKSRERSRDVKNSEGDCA

Compound: O=c1[nH]c(Cc2ccccc2Cl)nc2c1cnn2C1CCOCC1 [Example 4]
inhibition at 10 µM [1]: 98%
IC50 [2]: 1 to 100 nM

Compound: O=c1[nH]c(Cc2ccccc2Br)nc2c1cnn2C1CCOCC1 [Example 5]
inhibition at 10 µM [1]: 99%
IC50 [2]: 1 to 100 nM

Compound: O=c1[nH]c(Cc2c(F)cccc2Cl)nc2c1cnn2C1CCOCC1 [Example 6]
inhibition at 10 µM [1]: 98%
IC50 [2]: 1 to 100 nM

Compound: O=c1[nH]c(Cc2cc(F)cc(F)c2)nc2c1cnn2C1CCOCC1 [Example 7]
inhibition at 10 µM [1]: 98%
IC50 [2]: 1 to 100 nM

Compound: CCCCc1nc2c(cnn2C2CCOCC2)c(=O)[nH]1 [Example 8]
inhibition at 10 µM [1]: 100%
IC50 [2]: 1 to 100 nM

Compound: O=c1[nH]c(CCC2CCCC2)nc2c1cnn2C1CCOCC1 [Example 9]
inhibition at 10 µM [1]: 99%
IC50 [2]: 1 to 100 nM

Compound: O=c1[nH]c(Cc2ccc(F)cc2Cl)nc2c1cnn2C1CCOCC1 [Example 10]
inhibition at 10 µM [1]: 98%
IC50 [2]: 1 to 100 nM

Compound: COc1ccc(Cc2nc3c(cnn3C3CCOCC3)c(=O)[nH]2)cc1 [Example 11]
inhibition at 10 µM [1]: 98%
IC50 [2]: 1 to 100 nM

Compound: O=c1[nH]c(C(F)(F)c2ccccc2)nc2c1cnn2C1CCOCC1 [Example 13]
inhibition at 10 µM [1]: 90%
IC50 [2]: 101 to 1200 nM

Compound: Cc1nc(Cc2nc3c(cnn3C3CCOCC3)c(=O)[nH]2)c(C)s1 [Example 24]
inhibition at 10 µM [1]: 86%
IC50 [2]: 101 to 1200 nM

Compound: O=c1[nH]c(CCCC(F)(F)F)nc2c1cnn2C1CCOCC1 [Example 25]
inhibition at 10 µM [1]: 96%
IC50 [2]: 1 to 100 nM

Compound: O=c1[nH]c(Cn2cccn2)nc2c1cnn2C1CCOCC1 [Example 26]
inhibition at 10 µM [1]: 91%
IC50 [2]: 101 to 1200 nM

Compound: COc1ccc(Cc2nc3c(cnn3C3CCOCC3)c(=O)[nH]2)cc1F [Example 27]
inhibition at 10 µM [1]: 99%
IC50 [2]: 1 to 100 nM

Compound: O=c1[nH]c(Cc2ccccc2O)nc2c1cnn2C1CCOCC1 [Example 28]
inhibition at 10 µM [1]: 98%
IC50 [2]: 1 to 100 nM

Compound: CCCc1nc2c(cnn2C2CCOCC2)c(=O)[nH]1 [Example 29]
inhibition at 10 µM [1]: 96%
IC50 [2]: 1 to 100 nM

Compound: COc1cccc(Cl)c1Cc1nc2c(cnn2C2CCOCC2)c(=O)[nH]1 [Example 33]
inhibition at 10 µM [1]: 97%
IC50 [2]: 1 to 100 nM

Compound: O=c1[nH]c(CCC(F)(F)F)nc2c1cnn2C1CCOCC1 [Example 34]
inhibition at 10 µM [1]: 93%
IC50 [2]: 101 to 1200 nM

Compound: COc1ccc(C#N)c(Cc2nc3c(cnn3C3CCOCC3)c(=O)[nH]2)c1 [Example 35]
inhibition at 10 µM [1]: 100%
IC50 [2]: 101 to 1200 nM

Compound: Cc1cc(C)cc(Cc2nc3c(cnn3C3CCOCC3)c(=O)[nH]2)c1 [Example 36]
inhibition at 10 µM [1]: 100%
IC50 [2]: 1 to 100 nM

Compound: O=c1[nH]c(Cc2c(F)ccc(F)c2Cl)nc2c1cnn2C1CCOCC1 [Example 37]
inhibition at 10 µM [1]: 97%
IC50 [2]: 1 to 100 nM

Compound: O=c1[nH]c(Cc2cc(Cl)cc(Cl)c2)nc2c1cnn2C1CCOCC1 [Example 38]
inhibition at 10 µM [1]: 99%
IC50 [2]: 1 to 100 nM

Compound: O=c1[nH]c(Cc2cccc(Cl)c2)nc2c1cnn2C1CCOCC1 [Example 39]
inhibition at 10 µM [1]: 99%
IC50 [2]: 1 to 100 nM

Compound: O=c1[nH]c(CCC2CCC2)nc2c1cnn2C1CCOCC1 [Example 40-1]
inhibition at 10 µM [1]: 100%
IC50 [2]: 1 to 100 nM

Compound: COc1ccc(Cc2nc3c(cnn3C3CCOCC3)c(=O)[nH]2)c(Cl)c1 [Example 40-2]
inhibition at 10 µM [1]: 100%
IC50 [2]: 1 to 100 nM

Compound: COc1ccccc1CCc1nc2c(cnn2C2CCOCC2)c(=O)[nH]1 [Example 40-3]
inhibition at 10 µM [1]: 100%
IC50 [2]: 101 to 1200 nM

Compound: O=c1[nH]c(CC2CC2)nc2c1cnn2C1CCSCC1 [Example 40-5]
inhibition at 10 µM [1]: 98%
IC50 [2]: 1 to 100 nM

Compound: O=c1[nH]c(CC2CCC(F)(F)CC2)nc2c1cnn2C1CCOCC1 [Example 40-6]
inhibition at 10 µM [1]: 97%
IC50 [2]: 1 to 100 nM

Compound: Cc1cccn(-c2ccccc2Cc2nc3c(cnn3C3CCOCC3)c(=O)[nH]2)c1=O [Example 40-7]
inhibition at 10 µM [1]: 95%
IC50 [2]: 101 to 1200 nM

Compound: O=c1[nH]c(Cc2ccccc2)nc2c1cnn2C1CCOCC1 [Example 40]
IC50 (IC50 within range [nanomolar (nM)]): 1 to 100 nM
inhibition at 10 µM (read-out: % inhibition of PDE9A2 (at 10 micromolar concentration)): 99%

Compound: O=c1[nH]c(CC2CCOCC2)nc2c1cnn2C1CCOCC1 [Example 41]
inhibition at 10 µM [1]: 92%
IC50 [2]: 101 to 1200 nM

Compound: O=c1[nH]c(CC2CCC2)nc2c1cnn2C1CCOCC1 [Example 43]
inhibition at 10 µM [1]: 98%
IC50 [2]: 1 to 100 nM

Compound: O=c1[nH]c(Cc2cccc(C(F)(F)F)c2)nc2c1cnn2C1CCOCC1 [Example 44]
inhibition at 10 µM [1]: 99%
IC50 [2]: 1 to 100 nM

Compound: O=c1[nH]c(Cc2ccccc2C(F)(F)F)nc2c1cnn2C1CCOCC1 [Example 45]
inhibition at 10 µM [1]: 98%
IC50 [2]: 1 to 100 nM

Compound: O=c1[nH]c(CC2CC2)nc2c1cnn2C1CCOCC1 [Example 47]
inhibition at 10 µM [1]: 97%
IC50 [2]: 1 to 100 nM

Compound: COc1ccccc1Cc1nc2c(cnn2C2CCOCC2)c(=O)[nH]1 [Example 49]
inhibition at 10 µM [1]: 98%
IC50 [2]: 1 to 100 nM

Compound: O=c1[nH]c(Cc2cc(OC(F)(F)F)ccc2F)nc2c1cnn2C1CCOCC1 [Example 50]
inhibition at 10 µM [1]: 97%
IC50 [2]: 1 to 100 nM

The remaining lines, values ahead:

inhibition at 10 µM [1]: 96%
IC50 [2]: 1 to 100 nM
Compound: O=c1[nH]c(Cc2ccccn2)nc2c1cnn2C1CCOCC1 [Example 51]

inhibition at 10 µM [1]: 100%
IC50 [2]: 1 to 100 nM
Compound: CCOc1ccccc1Cc1nc2c(cnn2C2CCOCC2)c(=O)[nH]1 [Example 52]

inhibition at 10 µM [1]: 99%
IC50 [2]: 1 to 100 nM
Compound: N#Cc1ccccc1Cc1nc2c(cnn2C2CCOCC2)c(=O)[nH]1 [Example 53]

inhibition at 10 µM [1]: 97%
IC50 [2]: 1 to 100 nM
Compound: CC(C)Oc1ccccc1Cc1nc2c(cnn2C2CCOCC2)c(=O)[nH]1 [Example 54]

inhibition at 10 µM [1]: 97%
IC50 [2]: 1 to 100 nM
Compound: O=c1[nH]c(Cc2ccccc2OCC2CC2)nc2c1cnn2C1CCOCC1 [Example 55]

inhibition at 10 µM [1]: 95%
IC50 [2]: 1 to 100 nM
Compound: Cc1cccnc1Cc1nc2c(cnn2C2CCOCC2)c(=O)[nH]1 [Example 56]

inhibition at 10 µM [1]: 100%
IC50 [2]: 1 to 100 nM
Compound: O=c1[nH]c(Cc2ccccc2O[C@@H]2CCOC2)nc2c1cnn2C1CCOCC1 [Example 57]

inhibition at 10 µM [1]: 96%
IC50 [2]: 1 to 100 nM
Compound: O=c1[nH]c(Cc2ccccc2O[C@H]2CCOC2)nc2c1cnn2C1CCOCC1 [Example 58]

inhibition at 10 µM [1]: 97%
IC50 [2]: 1 to 100 nM
Compound: O=c1[nH]c(Cc2ccccc2OC2CCOCC2)nc2c1cnn2C1CCOCC1 [Example 60]

inhibition at 10 µM [1]: 92%
IC50 [2]: 101 to 1200 nM
Compound: O=c1[nH]c(Cc2ncccc2C(F)(F)F)nc2c1cnn2C1CCOCC1 [Example 63]

inhibition at 10 µM [1]: 97%
IC50 [2]: 1 to 100 nM
Compound: O=c1[nH]c(Cc2cccc(C(F)(F)F)n2)nc2c1cnn2C1CCOCC1 [Example 64]

inhibition at 10 µM [1]: 97%
IC50 [2]: 1 to 100 nM
Compound: O=c1[nH]c(Cc2cc(C(F)(F)F)ccn2)nc2c1cnn2C1CCOCC1 [Example 65]

inhibition at 10 µM [1]: 91%
IC50 [2]: 101 to 1200 nM
Compound: O=c1[nH]c(Cc2ncccn2)nc2c1cnn2C1CCOCC1 [Example 66]

inhibition at 10 µM [1]: 95%
IC50 [2]: 101 to 1200 nM
Compound: COc1cccnc1Cc1nc2c(cnn2C2CCOCC2)c(=O)[nH]1 [Example 67]

inhibition at 10 µM [1]: 97%
IC50 [2]: 1 to 100 nM
Compound: CC(=O)N1CCC(Oc2ccccc2Cc2nc3c(cnn3C3CCOCC3)c(=O)[nH]2)CC1 [Example 68]

inhibition at 10 µM [1]: 91%
IC50 [2]: 101 to 1200 nM
Compound: O=c1[nH]c(Cc2cccnc2)nc2c1cnn2C1CCOCC1 [Example 123]

inhibition at 10 µM [1]: 95%
IC50 [2]: 1 to 100 nM
Compound: O=c1[nH]c(Cc2ccccc2OC2CCCC2)nc2c1cnn2C1CCOCC1 [Example 125]

inhibition at 10 µM [1]: 99%
IC50 [2]: 1 to 100 nM
Compound: CC[C@H](C)Cc1nc2c(cnn2C2CCOCC2)c(=O)[nH]1 [Example 128]

inhibition at 10 µM [1]: 98%
IC50 [2]: 1 to 100 nM
Compound: CCC(CC)Cc1nc2c(cnn2C2CCOCC2)c(=O)[nH]1 [Example 133, 6-(2-Ethyl-butyl)-1-(tetrahydro-pyran-4-yl)-1,5-dihydro-pyrazolo[3,4-d]pyrimidin-4-one]

inhibition at 10 µM [1]: 99%
IC50 [2]: 1 to 100 nM
Compound: O=c1[nH]c(CC2CCCC2)nc2c1cnn2C1CCOCC1 [Example 134]

inhibition at 10 µM [1]: 100%
IC50 [2]: 1 to 100 nM
Compound: O=c1[nH]c(Cc2ccc(F)c(Br)c2)nc2c1cnn2C1CCOCC1 [Example 136]

inhibition at 10 µM [1]: 99%
IC50 [2]: 1 to 100 nM
Compound: O=c1[nH]c(Cc2ccc(F)c(Cl)c2)nc2c1cnn2C1CCOCC1 [Example 137]

inhibition at 10 µM [1]: 100%
IC50 [2]: 1 to 100 nM
Compound: O=c1[nH]c(Cc2ccccc2OC(F)(F)F)nc2c1cnn2C1CCOCC1 [Example 138]
